Results as given in patent US20240293401A1, “COMBINATION THERAPY WITH AN LXR AGONIST AND AN INHIBITOR COMPOUND” (Asteroid Therapeutics, priority 2023, published 2024).
One block for each compound: values may come before it.

Experiments:
[1] = test system: glioblastoma, prostate cancer, and breast cancer cells; settings: cited from earlier work
Abca1 = assay: Mouse study: expression of the LXR target gene Abca1 in the brain after 5 days of daily dosing; format: in vivo, mice; settings: for Average ABCA1 FC vs. vehicle (brain): daily for 5 days, 4 hours post dose on day 5
Experimental: (§1) Mice were dosed daily with either: • a. the LXR agonist GW3965 orally at specified concentrations for 5-days, • b. the LXR inverse agonist SR9238 intraperitoneally at specified concentrations for 5-days, or • c. both drugs simultaneously at specified concentrations for 5-days.
(§2) Four hours after the final treatment on day 5, mice were euthanized and tissues were collected.

β-cells = settings: cited from earlier work
[2] = Mouse study: liver triglycerides after 5 days of daily dosing; format: in vivo, mice; settings: for Average liver trig: daily for 5 days, 4 hours post dose on day 5
Experimental: as §1, §2

[3] = SR9238 30 mg/kg intraperitoneally
[4] = SR9238 60 mg/kg intraperitoneally

Compound: CC(C)CC[C@@H](O)[C@@H](C)[C@H]1CC[C@H]2[C@@H]3CC=C4C[C@@H](O)CC[C@]4(C)[C@H]3CC[C@]12C [22(R)-hydroxycholesterol]
proliferation of glioblastoma, prostate cancer, and breast cancer cells (in words) [1]: suppress the proliferation

Compound: O=C(O)Cc1cccc(OCCCN(Cc2cccc(C(F)(F)F)c2Cl)CC(c2ccccc2)c2ccccc2)c1 [GW-3965]
Average ABCA1 FC vs. vehicle (brain) (Abca1; GW-3965 15 mg/kg orally): 1.6
Average ABCA1 FC vs. vehicle (brain) (Abca1; GW-3965 30 mg/kg orally): 2.0
Average ABCA1 FC vs. vehicle (brain) (Abca1; GW-3965 60 mg/kg orally): 2.8
expression of the LXR target gene Abca1 (in words) (Abca1; GW-3965 alone, 5 days of daily treatment, brains of mice): increased expression
effect on β-cells (in words) (β-cells): interfere with mitochondrial metabolism and metabolism-independent processes in β-cells
Average liver trig ([2]; GW-3965 15 mg/kg orally): 16.3 mg/g
Average liver trig ([2]; GW-3965 30 mg/kg orally): 18.4 mg/g
Average liver trig ([2]; GW-3965 60 mg/kg orally): 29.2 mg/g
liver triglyceride concentrations (in words) ([2]; GW-3965 alone, 5 days of daily treatment): increased liver triglyceride concentrations

Average liver trig [2, 3]: 7.78 mg/g
Average liver trig [2, 4]: 8.4 mg/g
Compound: CCOC(=O)c1ccc(CN(Cc2ccc(-c3cccc(S(C)(=O)=O)c3)cc2)S(=O)(=O)c2c(C)cc(C)cc2C)o1 [SR9238]
Average ABCA1 FC vs. vehicle (brain) (Abca1; [3]): 0.9
Average ABCA1 FC vs. vehicle (brain) (Abca1; [4]): 1.2

Compound: O=S(=O)(c1ccccc1)N(CC(F)(F)F)c1ccc(C(O)(C(F)(F)F)C(F)(F)F)cc1 [T0901317]
effect on β-cells (in words) (β-cells): interfere with mitochondrial metabolism and metabolism-independent processes in β-cells

Compound: CC(C)[C@@H](O)CC[C@@H](C)[C@H]1CC[C@H]2[C@@H]3CC=C4C[C@@H](O)CC[C@]4(C)[C@H]3CC[C@]12C [24(S)-hydroxycholesterol]
proliferation of glioblastoma, prostate cancer, and breast cancer cells (in words) [1]: suppress the proliferation
